Assay results reported in paper PMC12933751 (RSC Advances, 2026).

Biological target: T1, ArnT (undecaprenyl phosphate-alpha-4-amino-4-deoxy-L-arabinose arabinosyl transferase) (Pseudomonas aeruginosa, UniProt Q02R27)
T1 sequence (Q02R27 1-549): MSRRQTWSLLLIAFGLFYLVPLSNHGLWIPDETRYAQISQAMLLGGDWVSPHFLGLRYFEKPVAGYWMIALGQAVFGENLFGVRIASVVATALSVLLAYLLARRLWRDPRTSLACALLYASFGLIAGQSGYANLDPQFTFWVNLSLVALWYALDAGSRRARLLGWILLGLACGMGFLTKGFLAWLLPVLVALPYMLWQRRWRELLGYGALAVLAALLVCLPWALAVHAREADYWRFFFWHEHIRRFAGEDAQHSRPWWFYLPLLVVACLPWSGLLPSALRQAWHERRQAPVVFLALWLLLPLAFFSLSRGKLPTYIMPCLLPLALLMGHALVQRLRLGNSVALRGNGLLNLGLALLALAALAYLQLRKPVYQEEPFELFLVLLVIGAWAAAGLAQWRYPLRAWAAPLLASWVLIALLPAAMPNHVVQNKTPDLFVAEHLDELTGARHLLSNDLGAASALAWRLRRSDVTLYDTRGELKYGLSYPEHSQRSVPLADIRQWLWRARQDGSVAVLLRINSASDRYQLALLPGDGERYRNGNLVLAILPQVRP
Assay: intrinsic tryptophan fluorescence quenching titration, one-site binding fit

Compound: C[C@@]12CC[C@@H]3[C@@](CC[C@@H]4[C@@](C)(COC(=O)C(=O)O)CCC[C@]43C)(CC1)C2 [FDO-H]
- Kd: ~10 µM
